Assay results published in patent US20090247559A1 (Exelixis, Inc., priority 2007, published 2009).

How the values were obtained:
CK2 = CK2 (Homo sapiens, UniProt P68400); assay: CK2 inhibition, biochemical chemiluminescence holoenzyme assay (Kinase Glo, IC50 determination); details: Table 1 activity class; symbol given only if active; read-out: CK2 IC50 (Activity C)
Method: Characterization of CK2 Inhibition in a Biochemical Chemiluminesence Assay (IC50 Determination):
The IC50 evaluation of compounds against CK2 was performed in a Chemiluminesence Holoenzyme assay utilizing a Greiner 384-well white medium binding white plate format. […] The assay procedure involves the compound dilution scheme followed by addition of 10 μL of the substrate twice, followed by 10 μL twice of the respective enzyme or buffer to the designated well plates and subsequent pre-incubation of the compounds. Following an incubation period of 150 minutes at ambient temperature (24-27° C.), 10 μL of Kinase Glo (Promega) was added. The luminescence was measured following a Luminescence Protocol on a Victor plate reader.

[1] = biological target: PIM (PIM-1, PIM-2, and/or PIM-3); assay: PIM-1, PIM-2 and PIM-3 inhibition, biochemical chemiluminescence assays (Kinase Glo, IC50 determination); details: Table 1 activity class; PIM refers to PIM-1, PIM-2, and/or PIM-3; read-out: PIM IC50 (Activity B)
Method: (§1) The IC50 evaluation of compounds against the PIM-1 oncogene was performed in a Chemiluminesence assay utilizing a Greiner 384-well white medium binding white plate format. […] Following an incubation period of 120 minutes at ambient temperature (24-27° C.), 10 μL of Kinase Glo (Promega) was added. The luminescence was measured following a Luminescence Protocol on a Victor plate reader.
The IC50 evaluation of compounds against the PIM-2 oncogene was performed in a Chemiluminesence assay utilizing a Greiner 384-well white medium binding white plate format. […] The assay procedure involves compound dilution followed by addition of 3 nM PIM-2 to the designated well plates and subsequent pre-incubation of the compounds with the enzyme for 30 minutes at ambient temperature (24-27° C.). […] Following an incubation period of 120 minutes at ambient temperature (24-27° C.), 10 μL of Kinase Glo (Promega) was added. The luminescence was measured following a Luminescence Protocol on a Victor plate reader.
as §1, with “PIM-3 Oncogene” for “PIM-1 oncogene”

Chain of CK2 (P68400 whole entry): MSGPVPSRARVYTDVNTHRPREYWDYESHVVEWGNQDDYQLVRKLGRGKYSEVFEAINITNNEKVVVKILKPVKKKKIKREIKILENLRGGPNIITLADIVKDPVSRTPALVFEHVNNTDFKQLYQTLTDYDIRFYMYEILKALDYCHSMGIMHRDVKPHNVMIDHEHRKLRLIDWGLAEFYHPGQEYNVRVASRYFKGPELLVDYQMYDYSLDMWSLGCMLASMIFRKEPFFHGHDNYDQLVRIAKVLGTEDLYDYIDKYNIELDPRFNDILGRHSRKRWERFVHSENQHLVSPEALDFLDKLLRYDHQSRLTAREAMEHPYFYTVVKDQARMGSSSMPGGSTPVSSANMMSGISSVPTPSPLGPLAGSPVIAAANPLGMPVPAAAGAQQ
Chain of CK2 (P67870 whole entry partner): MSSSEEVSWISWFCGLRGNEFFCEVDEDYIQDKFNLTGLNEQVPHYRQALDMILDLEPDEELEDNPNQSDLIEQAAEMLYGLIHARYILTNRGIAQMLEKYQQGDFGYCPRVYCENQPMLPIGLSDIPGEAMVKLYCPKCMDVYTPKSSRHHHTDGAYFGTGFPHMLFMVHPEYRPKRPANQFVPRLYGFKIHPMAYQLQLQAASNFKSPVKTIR

| Structure (SMILES) | IC50 (CK2) [µM] | IC50 [1] [µM] |
| --- | --- | --- |
| O=c1[nH]c(-c2ccc3c(NCC4CCNCC4)n[nH]c3c2)nc2c1oc1ccc(Br)cc12 [Compound 441, 8-bromo-2-{3-[(piperidin-4-ylmethyl)amino]-1H-indazol-6-yl}[1]benzofuro[3,2-d]pyrimidin-4(3H)-one] | < 10 | < 10 |
| COCCN1CCN(Cc2nc3c(oc4ccc(Br)cc43)c(=O)[nH]2)CC1 [Compound 151, 8-bromo-2-({4-[2-(methyloxy)ethyl]piperazin-1-yl}methyl)[1]benzofuro[3,2-d]pyrimidin-4(3H)-one] | < 10 | < 10 |
| O=c1[nH]c(CN2CC[C@H](O)C2)nc2c1oc1ccc(NCc3cccc(C(F)(F)F)c3)cc12 [Compound 464, 2-{[(3S)-3-hydroxypyrrolidin-1-yl]methyl}-8-({[3-(trifluoromethyl)phenyl]methyl}amino)[1]benzofuro[3,2-d]pyrimidin-4(3H)-one] | < 10 | < 10 |
| CN1CCC(N2CCN(c3nc4c(oc5ccc(Br)cc54)c(=O)[nH]3)CC2)CC1 [Compound 228, 8-bromo-2-[4-(1-methylpiperidin-4-yl)piperazin-1-yl][1]benzofuro[3,2-d]pyrimidin-4(3H)-one] | < 10 | < 10 |
| CC(C)COc1ccc2oc3c(=O)[nH]c(CN4CC[C@H](O)C4)nc3c2c1 [Compound 477, 2-{[(3S)-3-hydroxypyrrolidin-1-yl]methyl}-8-[(2-methylpropyl)oxy][1]benzofuro[3,2-d]pyrimidin-4(3H)-one] | < 10 | < 10 |
| O=C(CCc1c[nH]cn1)Nc1ccc(-c2nc3c(oc4ccc(Br)cc43)c(=O)[nH]2)c(Cl)c1 [Compound 162, N-[4-(8-bromo-4-oxo-3,4-dihydro[1]benzofuro[3,2-d]pyrimidin-2-yl)-3-chlorophenyl]-3-(1H-imidazol-4-yl)propanamide] | < 10 | < 10 |
| COc1ccc2oc3c(=O)[nH]c(-c4ccncc4Cl)nc3c2c1 [Compound 152, 2-(3-chloropyridin-4-yl)-8-(methyloxy)[1]benzofuro[3,2-d]pyrimidin-4(3H)-one] | < 10 | < 10 |
| O=C(Nc1ccc(Cl)c(-c2nc3c(oc4ccc(Br)cc43)c(=O)[nH]2)c1)c1ccc(Cl)cn1 [Compound 340, N-[3-(8-bromo-4-oxo-3,4-dihydro[1]benzofuro[3,2-d]pyrimidin-2-yl)-4-chlorophenyl]-5-chloropyridine-2-carboxamide] | < 10 | < 10 |
| O=c1[nH]c(CN2CCC[C@@H](O)C2)nc2c1oc1ccc(Br)cc12 [Compound 402, 8-bromo-2-{[(3R)-3-hydroxypiperidin-1-yl]methyl}[1]benzofuro[3,2-d]pyrimidin-4(3H)-one] | < 10 | < 10 |
| O=c1[nH]c(CNC2CCc3ccccc32)nc2c1oc1ccc(Br)cc12 (stereo not shown) [Compound 241, 8-bromo-2-[(2,3-dihydro-1H-inden-1-ylamino)methyl][1]benzofuro[3,2-d]pyrimidin-4(3H)-one] | < 10 | < 10 |
| CN(C)CCN1CCN(c2nc3c(oc4ccc(Br)cc43)c(=O)[nH]2)CC1 [Compound 227, 8-bromo-2-{4-[2-(dimethylamino)ethyl]piperazin-1-yl}[1]benzofuro[3,2-d]pyrimidin-4(3H)-one] | < 10 | < 10 |
| Nc1cc(C(=O)Nc2ccc(-c3nc4c(oc5ccc(Br)cc54)c(=O)[nH]3)c(Cl)c2)ccn1 [Compound 284, 2-amino-N-[4-(8-bromo-4-oxo-3,4-dihydro[1]benzofuro[3,2-d]pyrimidin-2-yl)-3-chlorophenyl]pyridine-4-carboxamide] | < 10 | < 10 |
| O=c1[nH]c(CN(CCO)CCO)nc2c1oc1ccc(Br)cc12 [Compound 410, 2-{[bis(2-hydroxyethyl)amino]methyl}-8-bromo[1]benzofuro[3,2-d]pyrimidin-4(3H)-one] | < 10 | < 10 |
| O=C(Nc1ccc(-c2nc3c(oc4ccc(Br)cc43)c(=O)[nH]2)c(Cl)c1)c1ccoc1 [Compound 341, N-[4-(8-bromo-4-oxo-3,4-dihydro[1]benzofuro[3,2-d]pyrimidin-2-yl)-3-chlorophenyl]furan-3-carboxamide] | < 10 | < 10 |
| O=c1[nH]c(CN2CC[C@H](O)C2)nc2c1oc1ccc(NCc3ccccn3)cc12 [Compound 463, 2-{[(3S)-3-hydroxypyrrolidin-1-yl]methyl}-8-[(pyridin-2-ylmethyl)amino][1]benzofuro[3,2-d]pyrimidin-4(3H)-one] | < 10 | < 10 |
| O=c1[nH]c(CN2C[C@H]3CNC[C@H]3C2)nc2c1oc1ccc(Br)cc12 [Compound 229, 8-bromo-2-[(3aR,6aS)-hexahydropyrrolo[3,4-c]pyrrol-2(1H)-ylmethyl][1]benzofuro[3,2-d]pyrimidin-4(3H)-one] | < 10 | < 10 |
| COc1ccc2oc3c(=O)[nH]c(-c4cc([N+](=O)[O-])ccc4Cl)nc3c2c1 [Compound 145, 2-(2-chloro-5-nitrophenyl)-8-(methyloxy)[1]benzofuro[3,2-d]pyrimidin-4(3H)-one] | < 10 | < 10 |
| O=c1[nH]c(CNCc2ccco2)nc2c1oc1ccc(Br)cc12 [Compound 258, 8-bromo-2-{[(furan-2-ylmethyl)amino]methyl}[1]benzofuro[3,2-d]pyrimidin-4(3H)-one] | < 10 | < 10 |
| CC(=O)N1CCC(c2nc3c(oc4ccc(Br)cc43)c(=O)[nH]2)CC1 [Compound 203, 2-(1-acetylpiperidin-4-yl)-8-bromo[1]benzofuro[3,2-d]pyrimidin-4(3H)-one] | < 10 | < 10 |
| O=c1[nH]c(CN2CCC(F)(F)C2)nc2c1oc1ccc(Br)cc12 [Compound 318, 8-bromo-2-[(3,3-difluoropyrrolidin-1-yl)methyl][1]benzofuro[3,2-d]pyrimidin-4(3H)-one] | < 10 | < 10 |
| O=c1[nH]c(CNCc2ccccc2)nc2c1oc1ccc(Br)cc12 [Compound 239, 8-bromo-2-{[(phenylmethyl)amino]methyl}[1]benzofuro[3,2-d]pyrimidin-4(3H)-one] | < 10 | < 10 |
| O=C(Nc1ccc(Cl)c(-c2nc3c(oc4ccc(Br)cc43)c(=O)[nH]2)c1)c1ccccc1 [Compound 371, N-[3-(8-bromo-4-oxo-3,4-dihydro[1]benzofuro[3,2-d]pyrimidin-2-yl)-4-chlorophenyl]benzamide] | < 10 | < 10 |
| COc1ccc(-c2nc3c(oc4ccc(Br)cc43)c(=O)[nH]2)c(Cl)c1OC [Compound 68, 8-bromo-2-[2-chloro-3,4-bis(methyloxy)phenyl][1]benzofuro[3,2-d]pyrimidin-4(3H)-one] | < 10 | < 10 |
| COc1ccc(CNc2ccc3oc4c(=O)[nH]c(CN5CC[C@H](O)C5)nc4c3c2)cc1 [Compound 468, 2-{[(3S)-3-hydroxypyrrolidin-1-yl]methyl}-8-({[4-(methyloxy)phenyl]methyl}amino)[1]benzofuro[3,2-d]pyrimidin-4(3H)-one] | < 10 | < 10 |
| CCCCNc1ccc2oc3c(=O)[nH]c(CN4CC[C@H](O)C4)nc3c2c1 [Compound 446, 8-(butylamino)-2-{[(3S)-3-hydroxypyrrolidin-1-yl]methyl}[1]benzofuro[3,2-d]pyrimidin-4(3H)-one] | < 10 | < 10 |
| O=C(Nc1ccc(-c2nc3c(oc4ccc(Br)cc43)c(=O)[nH]2)c(Cl)c1)C1CCCC1 [Compound 251, N-[4-(8-bromo-4-oxo-3,4-dihydro[1]benzofuro[3,2-d]pyrimidin-2-yl)-3-chlorophenyl]cyclopentanecarboxamide] | < 10 | < 10 |
| O=c1[nH]c(-c2ccccc2O)nc2c1oc1ccc(Br)cc12 [Compound 51, 8-bromo-2-(2-hydroxyphenyl)[1]benzofuro[3,2-d]pyrimidin-4(3H)-one] | < 10 | < 10 |
| COc1cccc(CNCc2nc3c(oc4ccc(Br)cc43)c(=O)[nH]2)c1 [Compound 255, 8-bromo-2-[({[3-(methyloxy)phenyl]methyl}amino)methyl][1]benzofuro[3,2-d]pyrimidin-4(3H)-one] | < 10 | < 10 |
| O=c1[nH]c(CN2CCN(CCO)CC2)nc2c1oc1ccc(Br)cc12 [Compound 247, 8-bromo-2-{[4-(2-hydroxyethyl)piperazin-1-yl]methyl}[1]benzofuro[3,2-d]pyrimidin-4(3H)-one] | < 10 | < 10 |
